One data set addresses T1, A^2A^1A^2A^1.
T1 construct: gene CASTOR2; one polypeptide: CASTOR2 with ACT2 and ACT4 replaced by those of CASTOR1 (CASTOR1 residues 1-5, 76-147, 176-179, 263-329); E. coli
Briefly: isothermal titration calorimetry. In kind it is binding, Homo sapiens. The note with it: 20 °C; 1 mM ligand titrated into 70 μM protein; single-site model. The text has this: isothermal titration calorimetry on A^2A^1A^2A^1

Data set [1] addresses T2, CASTOR1 (Homo sapiens, UniProt Q8WTX7, L113A).
T2 construct: full-length, residues 1-329, C-terminal His6 tag (pET-28a), E. coli BL21(DE3), homodimer in solution; Ni-NTA and gel filtration
T2 sequence (Q8WTX7 1-329 L113A): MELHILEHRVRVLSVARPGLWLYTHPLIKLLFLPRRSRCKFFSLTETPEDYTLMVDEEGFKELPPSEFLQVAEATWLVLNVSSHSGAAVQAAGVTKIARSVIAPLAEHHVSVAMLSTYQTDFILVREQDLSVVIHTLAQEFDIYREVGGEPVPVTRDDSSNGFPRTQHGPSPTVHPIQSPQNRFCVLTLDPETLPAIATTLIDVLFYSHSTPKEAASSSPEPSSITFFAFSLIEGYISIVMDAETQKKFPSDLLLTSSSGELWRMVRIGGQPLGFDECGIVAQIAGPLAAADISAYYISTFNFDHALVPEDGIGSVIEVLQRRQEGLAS
Briefly: isothermal titration calorimetry. The data set is classed as binding. The text has this: (§1) isothermal titration calorimetry on CASTOR1

Data set [2] concerns the target T3, CASTOR1 (Homo sapiens, UniProt Q8WTX7, V281A).
T3 construct: full-length, residues 1-329, C-terminal His6 tag (pET-28a), E. coli BL21(DE3), homodimer in solution; Ni-NTA and gel filtration
T3 sequence (Q8WTX7 1-329 V281A): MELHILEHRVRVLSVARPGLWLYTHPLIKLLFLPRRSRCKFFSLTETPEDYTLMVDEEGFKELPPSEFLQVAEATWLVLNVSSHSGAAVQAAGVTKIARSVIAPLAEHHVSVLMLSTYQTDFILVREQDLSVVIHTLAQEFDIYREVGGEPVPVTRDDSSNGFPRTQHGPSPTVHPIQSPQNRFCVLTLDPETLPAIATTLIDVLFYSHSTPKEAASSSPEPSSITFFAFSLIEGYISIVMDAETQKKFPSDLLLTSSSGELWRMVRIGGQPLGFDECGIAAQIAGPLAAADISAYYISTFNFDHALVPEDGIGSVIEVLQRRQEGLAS
Briefly: isothermal titration calorimetry. In kind it is binding.
Source text: as §1

The target of data set [3] is T4, CASTOR1 (Homo sapiens, UniProt Q8WTX7, F303A).
T4 construct: full-length, residues 1-329, C-terminal His6 tag (pET-28a), E. coli BL21(DE3), homodimer in solution; Ni-NTA and gel filtration
T4 sequence (Q8WTX7 1-329 F303A): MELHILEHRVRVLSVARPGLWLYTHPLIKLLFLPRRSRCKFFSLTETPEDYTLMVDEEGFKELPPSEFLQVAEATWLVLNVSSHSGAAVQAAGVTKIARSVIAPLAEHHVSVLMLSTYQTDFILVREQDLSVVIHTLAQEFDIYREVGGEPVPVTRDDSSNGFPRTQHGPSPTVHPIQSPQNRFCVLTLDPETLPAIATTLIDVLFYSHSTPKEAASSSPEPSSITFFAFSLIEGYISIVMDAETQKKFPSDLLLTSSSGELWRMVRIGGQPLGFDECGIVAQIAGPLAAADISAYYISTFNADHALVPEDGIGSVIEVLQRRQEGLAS
Briefly: isothermal titration calorimetry. The data set is classed as binding.
Source text: as §1

The target in the next data set is T5, A^2A^1A^2A^2.
T5 construct: gene CASTOR2; one polypeptide: CASTOR2 with ACT2 replaced by ACT2 of CASTOR1 (ACT2 of CASTOR1 = residues 1-5 and 76-147); E. coli
Briefly: isothermal titration calorimetry. The data set is classed as binding, Homo sapiens. The note with it: 20 °C; 1 mM ligand titrated into 70 μM protein; single-site model. The text has this:
isothermal titration calorimetry on A^2A^1A^2A^2

In another data set the target is T6, A^2A^2A^2A^1.
T6 construct: gene CASTOR2; one polypeptide: CASTOR2 with ACT4 replaced by ACT4 of CASTOR1 (ACT4 of CASTOR1 = residues 176-179 and 263-329); E. coli
Briefly: isothermal titration calorimetry. The note with it: 20 °C; 1 mM ligand titrated into 70 μM protein; single-site model. The data set is classed as binding, Homo sapiens. The text has this: isothermal titration calorimetry on A^2A^2A^2A^1

Data set [4] addresses T7, CASTOR1 (Homo sapiens, UniProt Q8WTX7).
T7 construct: full-length, residues 1-329, C-terminal His6 tag (pET-28a), E. coli BL21(DE3), homodimer in solution; Ni-NTA and gel filtration
T7 sequence (Q8WTX7 1-329): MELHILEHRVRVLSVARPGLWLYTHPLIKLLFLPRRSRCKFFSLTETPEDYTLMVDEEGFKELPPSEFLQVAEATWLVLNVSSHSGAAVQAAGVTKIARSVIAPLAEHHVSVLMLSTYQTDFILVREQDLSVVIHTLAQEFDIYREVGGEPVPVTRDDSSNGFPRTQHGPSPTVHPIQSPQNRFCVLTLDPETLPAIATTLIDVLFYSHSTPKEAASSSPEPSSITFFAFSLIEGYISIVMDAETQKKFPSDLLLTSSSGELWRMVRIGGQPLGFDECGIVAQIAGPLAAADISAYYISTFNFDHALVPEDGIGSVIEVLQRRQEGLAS
Briefly: isothermal titration calorimetry. The data set is classed as binding.

Data set [5] deals with the molecule itself. Description: SEC + other: dynamic light scattering; purified recombinant proteins in solution; CASTOR1 with and without arginine (dimerization independent of arginine); the CASTOR1-CASTOR2 complex analysed after co-purification.

Consider `N=C(N)NCCC[C@H](N)C(=O)O` [arginine], for which the Kd amounted to 8.6 ± 1.9 µM at A^2A^1A^2A^1; 160 ± 23.6 µM at CASTOR1 [1]; 25.6 ± 4.3 µM at CASTOR1 [2]; 17.6 ± 1.9 µM at CASTOR1 [3]; 55 ± 11.5 µM on A^2A^1A^2A^2; 40.2 ± 8.4 µM at A^2A^2A^2A^1. Further, binding on CASTOR1 [4] was characterised by a dissociation constant (Kd) of 5.5 ± 0.4 µM.

B1: full-length human CASTOR1 (residues 1-329), His6-tagged (natural protein, UniProt Q8WTX7 1-329, looked up)
chain: MELHILEHRVRVLSVARPGLWLYTHPLIKLLFLPRRSRCKFFSLTETPEDYTLMVDEEGFKELPPSEFLQVAEATWLVLNVSSHSGAAVQAAGVTKIARSVIAPLAEHHVSVLMLSTYQTDFILVREQDLSVVIHTLAQEFDIYREVGGEPVPVTRDDSSNGFPRTQHGPSPTVHPIQSPQNRFCVLTLDPETLPAIATTLIDVLFYSHSTPKEAASSSPEPSSITFFAFSLIEGYISIVMDAETQKKFPSDLLLTSSSGELWRMVRIGGQPLGFDECGIVAQIAGPLAAADISAYYISTFNFDHALVPEDGIGSVIEVLQRRQEGLAS
notes: CASTOR1, human, full length, residues 1-329; Cloned in pET-28a (NcoI/XhoI); Se-Met substituted protein was used for phasing; No removal of the His6 tag is described; also called recombinant CASTOR1; source: E. coli BL21 (DE3), purified (Ni-NTA, gel filtration on Superdex 200)
For the molecule B1, the “stoichiometry N” value in data set [5] is 2.

B2: CASTOR2, His6-SUMO fusion (natural protein, human, UniProt A6NHX0 1-329, looked up)
chain: MELHILEHRLQVASVAKESIPLFTYGLIKLAFLSSKTRCKFFSLTETPEDYTIIVDEEGFLELPSSEHLSVADATWLALNVVSGGGSFSSSQPIGVTKIAKSVIAPLADQNISVFMLSTYQTDFILVRERDLPFVTHTLSSEFTILRVVNGETVAAENLGITNGFVKPKLVQRPVIHPLSSPSNRFCVTSLDPDTLPAVATLLMDVMFYSNGVKDPMATGDDCGHIRFFSFSLIEGYISLVMDVQTQQRFPSNLLFTSASGELWKMVRIGGQPLGFDECGIVAQISEPLAAADIPAYYISTFKFDHALVPEENINGVISALKVSQAEKH
notes: CASTOR2, human; Homodimer on its own; in the co-expressed complex with m3 it stands once (heterodimer); Purification of the co-expressed complex is said to be the same as for CASTOR1 (Ni-NTA), so the tag would be the handle there; also called His6-SUMO fused castor2; source: E. coli BL21 (DE3), purified (Ni-NTA, gel filtration); also co-expressed with untagged CASTOR1 in E. coli BL21 (DE3)
With B2, the “stoichiometry N” value in data set [5] was 2.

For the origin of these results see PMC5020642, “Structural insight into the arginine-binding specificity of CASTOR1 in amino acid-dependent mTORC1 signaling” (Cell Discovery, 2016).
